Experiments:
[1] = tested on: faecal bacteria; test: Measure of the prebiotic effect (MPE), batch culture; format: cell-based, human; details: ½√(x²y²+x²z²+y²z²), x=PI (μmax), y=ratio, z=Ar; sign from PI
From the text: The three values (PI, Ar and ratio) obtained are used to calculate the MPE value using the following equation: ½√{square root over (x^2y^2+x^2z^2+y^2z^2)}=MPE wherein x=PI (as calculated under paragraph 2.1.2); y=ratio of lactate over total SCFA (as calculated under paragraph 2.2) and z=Ar (as calculated under paragraph 2.3).

[2] = tested on: faecal bacteria; test: Total carbohydrate assay, rate of substrate assimilation, batch culture; format: cell-based, human; details: St=S0−Art, S0=1% by weight, exponential phase of bacterial growth
Experimental: A phenol-sulphuric acid assay is used for the determination of total carbohydrate content as expressed in glucose equivalents. The assay is calibrated with D-glucose standards ranging from 0 to 0.15 mgml^−1. Measurements of the absorbance at 450 nm are taken using the spectrophotometer and plotted against the standards. The total carbohydrate content is thus calculated. […] Samples are taken every 2 hours up to […] and then at 15 and 24 hours. […] The rate of assimilation is calculated with the following equation: St=S0−Art […]

[3] = tested on: Lactobacilli; test: Batch culture fermentation, FISH enumeration; format: cell-based, Lactobacillus/Enterococcus spp.; details: 1% (w/v) substrate
Experimental: (§1) Faecal samples are obtained from healthy human volunteers. Volunteers are required not to have been prescribed antibiotics for at least 6 months prior to the study and have no history of gastrointestinal diseases. The samples are collected on site and used immediately following collection. A 1/10 dilution in anaerobic phosphate buffer (0.1 M, pH 7.4) is prepared and the samples homogenised in a stomacher for 2 minutes.
(§2) Sterile, stirred, batch culture fermentation vessels (300 ml volume) are filled with 135 ml basal nutrient medium (peptone water 2 g/l, yeast extract 2 g/l, NaCl 0.1 g/l, K2HPO4 0.04 g/l, KH2PO4 0.04 g/l, MgSO4.7H2O 0.01 g/l, CaCl2.6H2O 0.01, NaHCO3 2 g/l, Tween 80 2 ml, Hemin 0.02 g/l, Vitamin K1 10 μl, Cysteine.HCl 0.5 g/l, Bile salts (sodium glycocholate and sodium taurocholate) 0.5 g/l, pH 7.0) and gassed overnight with oxygen free nitrogen. […] Samples (3 ml) from each vessel are obtained for fluorescence in situ hybridisation (FISH), analysis of SCFA by high performance liquid chromatography (HPLC) and total carbohydrate measurement by assay. […]
(§3) Differences in bacterial populations are assessed through use of FISH with oligonucleotide probes designed to target diagnostic regions of 16S rRNA. […]

[4] = tested on: Desulfovibrio spp.; test: Batch culture fermentation, FISH enumeration; format: cell-based; details: 1% (w/v) substrate
Experimental: as §1
(§4) Sterile, stirred, batch culture fermentation vessels (300 ml volume) are filled with 135 ml basal nutrient medium (peptone water 2 g/l, yeast extract 2 g/l, NaCl 0.1 g/l, K2HPO4 0.04 g/l, KH2PO4 0.04 g/l, MgSO4.7H2O 0.01 g/l, CaCl2.6H2O 0.01, NaHCO3 2 g/l, Tween 80 2 ml, Hemin 0.02 g/l, Vitamin K1 10 μl, Cysteine.HCl 0.5 g/l, Bile salts (sodium glycocholate and sodium taurocholate) 0.5 g/l, pH 7.0) and gassed overnight with oxygen free nitrogen. Prior to addition of the faecal slurry,0.25%, 0.5% or 1% (w/v) testing substrates are added to different vessels, culture temperature is set at 37° C. by means of a circulating water bath and medium pH is maintained at 6.8 using an Electrolab pH controller. The vessels are inoculated with 15 ml of fresh faecal slurry ( 1/10 w/v) and continuously sparged with O2-free N2 at a flow rate of 15 ml/min. Samples (3 ml) from each vessel are obtained for fluorescence in situ hybridisation (FISH), analysis of SCFA by high performance liquid chromatography (HPLC) and total carbohydrate measurement by assay. Batch cultures are run over a period of 24 hours and samples are obtained every 2 hours up to 12 hours and then at 15 and 24 hours.
(§5) Differences in bacterial populations are assessed through use of FISH with oligonucleotide probes designed to target diagnostic regions of 16S rRNA. These are commercially synthesised and labelled with the fluorescent dye Cy3 (provided by Eurogentec UK Ltd).
(§6) For total bacterial counts the nucleic acid stain 4,6-diamidino-2-phenylindole (DAPI) is used. Samples obtained from fermentation vessels are diluted in 4% (w/v) paraformaldehyde and fixed overnight at 4° C. The cells are then centrifuged at 1500×g for 5 minutes, washed twice with phosphate-buffered saline (PBS; 0.1 M, pH 7.0), resuspended in a mixture of PBS/99% ethanol (1:1 w/v) and stored at −20° C. for at least 1 hour. For Lab 158 probe samples are further resuspended in the enzyme mixture containing agents that increase cell permeability and incubated for 1 hour at 37° C. The cells are then washed in PBS, resuspended in 100% methanol and stored at −20° C. for at least 1 hour. The cell suspension is then added to the hybridisation mixture and left overnight to hybridise at the appropriate temperature for each probe. Hybridized mixture is vacuum filtered using a 0.2 μm Isopore membrane filter (Millipore Corporation, Herts, UK). The filter is removed, placed onto a glass slide with SlowFade (Molecular Probes, Eugan, Oreg., USA) and examined under a fluorescent microscope (Nicon Eclipse, E400). The DAPI stained cells are examined under UV light and hybridised cells viewed using a DM510 filter. […] Samples are taken after 24 hours. […] Microbial counts are presented as log10cells/ml.

[5] = tested on: Bacteroides spp.; test: Batch culture fermentation, FISH enumeration; format: cell-based; details: 1% (w/v) substrate
Experimental: as §1, §4, §5, §6

[6] = tested on: Bifidobacterium spp.; test: Batch culture fermentation, FISH enumeration; format: cell-based; details: 1% (w/v) substrate
Experimental: as §1, §4, §5, §6

[7] = tested on: Clostridia; test: Batch culture fermentation, FISH enumeration; format: cell-based, Clostridium coccoides and Clostridium histolyticum; details: 1% (w/v) substrate
Experimental: as §1, §2, §3

[8] = tested on: E. coli; test: Batch culture fermentation, FISH enumeration; format: cell-based, Escherichia coli; details: 1% (w/v) substrate
From the text: For total bacterial counts the nucleic acid stain 4,6-diamidino-2-phenylindole (DAPI) is used. […] For each slide at least 15 different fields of view are counted. […]

[9] = tested on: faecal bacteria; test: Analysis of SCFA production by HPLC, batch culture; format: cell-based, human; details: 1% (w/v) substrate
Experimental: The production of succinic, lactic, formic, acetic, propionic, isobutyric, butyric, isovaleric and valeric acids in the fermentations is quantified by HPLC. Samples are centrifuged at 1500×g for 15 minutes and the resultant supernatant used for injection. A Model 1050 UV HPLC (Hewlett Packard), with an integrated oven compartment (50° C.) and data system is used in combination with a differential refractometer (Knauer). Sample injection is performed using an autosampler and is of 20 μl volume. The column is a pre-packed Aminex HPX-87-H strong cation-exchange resin column (150×7.8 mm I.D.), fitted with an ion exclusion micro-guard refill cartridge (Bio-Rad Labs., USA). The eluent used is 0.005 M sulphuric acid. Faecal samples are incubated with 135 ml basal nutrient medium containing 1% (w/v) substrate in batch culture systems at 37° C. Samples are taken every 2 hours up to 10 hours and then at 15 and 24 hours.

[10] = tested on: Eubacteria; test: Batch culture fermentation, FISH enumeration; format: cell-based, Eubacterium rectale; details: 1% (w/v) substrate
Experimental: as §1, §2, §3

For `OC[C@H]1O[C@@](CO)(O[C@H]2O[C@H](CO)[C@@H](O)[C@H](O)[C@H]2O)[C@@H](O)[C@@H]1O` [Sucrose, sucrose], the “MPE (measure of the prebiotic effect)” value [1] was −0.6, the “Ar (rate of substrate assimilation)” value [2] was 1.4 per hour and the “Ar (rate of substrate assimilation)” value ([2]; listed as sucrose) was 1.40 per hour. For the same compound, the “μmax L (maximum growth rate, lactobacilli)” value [3] was 0.03 h⁻¹, the Lactobacilli microbial counts ([3]; 24 hours, FISH) was 6.7 log10cells/ml and the “μmax SRB (maximum growth rate, Desulfovibrio spp)” value [4] was 0.21 h⁻¹. For the same compound, the Desulfovibrio microbial counts ([4]; 24 hours, FISH) was 6.7 log10cells/ml, the “μmax Ba (maximum growth rate, Bacteroides spp)” value [5] was 0.11 h⁻¹ and the Bacteroides microbial counts ([5]; 24 hours, FISH) was 8.1 log10cells/ml. The “μmax B (maximum growth rate, Bifidobacterium spp)” value [6] was 0.13 h⁻¹, the Bifidobacteria microbial counts ([6]; 24 hours, FISH) was 8.0 log10cells/ml and the “μmax Cl (maximum growth rate, Clostridium coccoides and Clostridium histolyticum)” value [7] was 0.22 h⁻¹. The Clostridia microbial counts ([7]; 24 hours, FISH) was 7.6 log10cells/ml, the “μmax Co (maximum growth rate, Escherichia coli)” value [8] was 0.27 h⁻¹ and the “E. Coli microbial counts” value ([8]; 24 hours, FISH) was 7.7 log10cells/ml. The lactate production [9] was “low”, the “μmax E (maximum growth rate, Eubacterium rectale)” value [10] was -0.21 h⁻¹ and the Eubacteria microbial counts ([10]; 24 hours, FISH) was 7.7 log10cells/ml.
